The source of these data is ChEMBL document CHEMBL1152041, “Design, Synthesis and Pharmacology of Cannabimimetic Indoles” (Bioorg Med Chem Lett, 1994).

One test has as its system Mus musculus. As to the kind of experiment: Tested in vivo for cannabimimetic activity in mouse. It counts as functional.
In a further test the target is Cannabinoid receptor (Homo sapiens, UniProt P34972+P21554). As to the kind of experiment: Binding affinity was determined in vitro against cannabinoid receptor by ability to displace [3H]CP-55940. The format is protein assay.

Where only a bound is given, the exact number is not on record here.

Usually ED50 stands for the dose that gives a 50% effect, or the effect in half of the subjects. The term Ki denotes the dissociation constant of the complex between target and ligand, obtained from inhibition or displacement. Low readings indicate a stronger hold on the target, high ones a looser hold on the target. Regarding `CCCCCCn1c(C)c(C(=O)c2cccc3ccccc23)c2ccccc21`, the ED50 in the test on Mus musculus stood at 14 µmol/kg. Besides, the Ki at Cannabinoid receptor came out at 48 nM. As for `CCCCC[C@H](C)n1c(C)c(C(=O)c2cccc3ccccc23)c2ccccc21`, the Ki on Cannabinoid receptor turned out to be 72 nM.

In the case of `CCCCCCCn1c(C)c(C(=O)c2cccc3ccccc23)c2ccccc21`, the ED50 in the test on Mus musculus is more than 189 µmol/kg. Further, the Ki at Cannabinoid receptor was more than 10000 nM.

`CC(=O)c1c(C)n(CCN2CCOCC2)c2ccccc12` yielded an ED50 with Mus musculus of more than 350 µmol/kg. The Ki on Cannabinoid receptor is listed as more than 10000 nM.

On to `CC(C)=CC(=O)c1c(C)n(CCN2CCOCC2)c2ccccc12`, for which the ED50 in the test on Mus musculus is more than 103 µmol/kg. Moreover, on Cannabinoid receptor, the Ki is more than 10000 nM. Turning to `CCCCCC(C)n1c(C)c(C(=O)c2cccc3ccccc23)c2ccccc21` (racemic), the 50% effect level with Mus musculus (ED50) was put at a dose of 35.6 µmol/kg. The same molecule registered a Ki on Cannabinoid receptor of 33 nM. On Cannabinoid receptor, `CCCCn1c(C)c(C(=O)c2cccc3ccccc23)c2ccccc21` yielded a Ki of 22 nM. This counts as double-digit nanomolar. Regarding `CCCCCn1c(C)c(C(=O)c2cccc3ccccc23)c2ccccc21`, the 50% effect level with Mus musculus (ED50) was put at a dose of 2.62 µmol/kg. The molecule also came in with a Ki at Cannabinoid receptor of 9.5 nM. In the test with Mus musculus, `CCCCCCC(C)(C)c1ccc([C@@H]2C[C@H](O)CC[C@H]2CCCO)c(O)c1` [CP-55940] showed an ED50 of 0.55 µmol/kg. On the same count and under the same terms, with `Cc1c(C(=O)c2cccc3ccccc23)c2cccc3c2n1[C@H](CN1CCOCC1)CO3` [WIN-552122] the figure was 6.53 µmol/kg.

Take `CCCCCc1cc(O)c2c(c1)OC(C)(C)[C@@H]1CCC(C)=C[C@@H]21` [DRONABINOL]: in the test with Mus musculus, the median effective dose (ED50) stood at 4.7 µmol/kg. `Cc1c(C(=O)c2cccc3ccccc23)c2ccccc2n1CCc1ccccc1` yielded an ED50 with Mus musculus of more than 257 µmol/kg. In addition, at Cannabinoid receptor, the Ki is on record as 1250 nM. The molecule `Cc1c(C(=O)c2cccc3ccccc23)c2ccccc2n1CCC1CCCCC1` yielded an ED50 in the test with Mus musculus of 65.8 µmol/kg. The same molecule yielded a Ki at Cannabinoid receptor of 46 nM. For `CCCCC[C@@H](C)n1c(C)c(C(=O)c2cccc3ccccc23)c2ccccc21`, in that order: 21.5 µmol/kg and 81 nM.
